In assay [1] the target is T1, L3MBTL2 (MBT) (Homo sapiens, UniProt Q969R5).
T1 construct: L3MBTL2 (aa 170–625); GST-His (N, cleaved yes); made in house; host or cells: E. coli BL21 (DE3) Codon plus RIL
As to the kind of experiment: ITC binding to MBT repeats of L3MBTL2. The note with it: Fig. 1c. An excerpt: (§1) The coding DNA fragments of following Tudor domains were cloned into pET28-MHL vector: SMN (aa 82–147), UHRF1 (aa 126–285), SMNDC1 (aa 53–130), TDRD3 (aa 554–611), SND1 (aa 650–910), TDRD2 (aa 327–420), FXR1 (aa 2–132), PHF1 (aa 28–87), SGF29 (aa 115–293), JMJD2A (aa 897–1101), 53BP1 (aa 1483–1606), SETDB1 (aa 190–410), LBR (aa 1–67), ZGPAT (aa 120–271). The coding regions of chromodomain of CBX7 (aa 8–62), PWWP domain of DNMT3A (aa 275–417), WD40 repeats of WDR5 (aa 24–334) and CW domain of ZCWPW2 (aa 21–78) were also subcloned into pET28-MHL vector to generate N-terminally His-tagged fusion protein. The MBT repeats of L3MBTL1 (aa 200–522) and L3MBTL2 (aa 170–625) were subcloned into pET28GST-LIC vector to generate N-terminally GST-His-tagged fusion protein. All the plasmids were generated by ligase independent cloning (Vazyme Biotech, C112 or ABclonal Technology, RK21020). […] The molecular weight of all protein samples was measured by mass spectrometry.
(§2) For the ITC measurement, the concentrated proteins were diluted into 20 mM Tris-HCl, pH 7.5, 150 mM NaCl (ITC buffer); the lyophilized compounds were dissolved in the same buffer, and the pH value was adjusted by adding 2 M NaOH or 2 M HCl. […] Compound concentrations were calculated from the mass and the volume of the solvent. […]

For assay [2], the target named is T2, WDR5 (WD40) (Homo sapiens, UniProt P61964).
T2 construct: WDR5 (aa 24–334); His (N, cleaved yes); made in house; host or cells: E. coli BL21 (DE3) Codon plus RIL
Put plainly: ITC binding to WD40 repeats of WDR5. The note with it: Fig. 1c.
Source text: as §1, §2

In assay [3] the target is T3, SMN_Y109A (Homo sapiens, UniProt Q16637, Y109A).
T3 construct: SMN (aa 82–147); His (N, cleaved yes); made in house; host or cells: E. coli BL21 (DE3) Codon plus RIL
Put plainly: ITC binding to SMN Tudor mutant Y109A. The conditions noted are these: Fig. 3d.
Source text: as §1, §2

Each structure is given as a SMILES string. Where only a bound is given, the exact number is not on record here.

This note sets out measurements from publication PMC9481570, “A small molecule antagonist of SMN disrupts the interaction between SMN and RNAP II” (Nature Communications, 2022).

The term Kd denotes the concentration at which binding is half-saturated.

T1 sequence (Q969R5 170-625): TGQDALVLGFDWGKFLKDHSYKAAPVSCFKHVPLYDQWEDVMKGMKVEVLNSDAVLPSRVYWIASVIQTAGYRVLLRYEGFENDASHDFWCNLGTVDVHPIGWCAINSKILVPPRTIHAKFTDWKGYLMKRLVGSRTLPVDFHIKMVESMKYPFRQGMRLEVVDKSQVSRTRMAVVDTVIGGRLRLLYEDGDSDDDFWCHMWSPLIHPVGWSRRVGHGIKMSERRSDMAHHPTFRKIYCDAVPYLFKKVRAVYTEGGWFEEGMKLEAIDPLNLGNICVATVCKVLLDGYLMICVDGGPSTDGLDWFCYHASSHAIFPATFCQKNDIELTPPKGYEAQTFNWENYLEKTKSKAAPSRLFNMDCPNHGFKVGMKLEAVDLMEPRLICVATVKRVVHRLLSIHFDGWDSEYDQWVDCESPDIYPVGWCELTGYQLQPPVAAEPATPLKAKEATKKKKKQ
T3 sequence (Q16637 82-147 Y109A): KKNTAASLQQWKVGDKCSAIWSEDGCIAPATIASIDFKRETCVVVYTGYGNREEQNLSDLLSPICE

On to `Cn1c2c(c(=N)c3c1CCC3)CCC2` [Compound 1, 4-methyl-2,3,4,5,6,7-hexahydrodicyclopenta[b,e]pyridin-8(1H)-imine], for which the Kd is greater than 244 µM in assay [1], greater than 244 µM in assay [2] and 15 ± 1 µM in assay [3].
